Experiments:
[1] = biological target: HEK293 cells expressing NR1/NR2B (Homo sapiens (Human), UniProt Q05586+Q13224); experiment: NR2B NAM Assay (FDSS Ca2+ influx cell assay); format: cell-based; conditions: NR2B NAM assay, class of inhibitory concentration; read-out: Activity Category
Procedure: (§1) Cell Culture and plating: HEK293 cells expressing NR1/NR2B (Chantest, Cleveland, Ohio) were grown to 70-80% confluency as an adherent monolayer in standard tissue culture flasks at 37° C., 5% CO2 per supplier's instructions. NR2B expression was induced by incubation with 0.3-0.4 μg/ml tetracycline in the presence of 4 mM ARL-15896 for 18-24 hours under the same growth conditions, then transferred to 30° C. for another 3-5 hours.
(§2) After induction, cell culture medium was removed and cells were rinsed once with Ca^2+ and Mg^2+-free Dulbecco's phosphate buffered saline. Cells were then removed from the flask using TrypLE™ Express (Life Technologies) according to the manufacturer's instructions and collected to 50 ml centrifuge tubes. Following two washes in Ca^2+/Mg^2+-free HBSS with 20 mM HEPES (HHnoCa), cells were counted and viability assessed using trypan blue. To load cells with Ca^2+-sensitive dye, they were resuspended in fluo-8 plus Component B (AAT Bioquest Products) diluted in HHnoCa and incubated 15 minutes at 37° C., followed by 30 minutes at room temp (in dark). Cells were then washed and resuspended in HHnoCa to remove extracellular dye and plated in 384-well plates (Falcon, uncoated) at 20,000-30,000 cells/well in a final volume of 25 μl/well.
(§3) FDSS Assay: To each well of the plate, 10 μL test compound, control (MK801) or HHnoCa buffer was added at different concentrations to yield final concentrations of 0.001, 0.003, 0.010, 0.030, 0.100, 0.300, 1.000, 3.000, 10.000, or 30.000 uM final concentration of DMSO of 0.1%. Following 10 minutes pre-incubation in the dark, plates are loaded onto the Hamamatsu FDSS 6000. After collecting baseline fluorescence images, 3 μM glutamate, 3 μM glycine, and 1 mM Ca^2+ in HHnoCa buffer is added to each well, and Ca^2+ is recorded for 3 minutes. Data were processed by computing ratio of fluorescence at the end of data collection to baseline fluorescence to assess degree of Ca^2+ influx inhibition relative to that observed in MK801.
(§4) Table 8 below provides activity of each compound according to the legend that “++++” indicates inhibition at a concentration<100 nM; “+++” indicates inhibition at a concentration between 100 nM and 1 μM of the disclosed compound; “++” indicates inhibition at a concentration of from 1 μM to 10 μM; and “+” indicates inhibition at a concentration>10 μM.

[2] = biological target: HEK293 cells expressing NR1/NR2B (Homo sapiens (Human), UniProt Q13224); experiment: NR2B NAM Assay (FDSS Ca2+ influx cell assay); format: cell-based; conditions: Ca2+ influx inhibition relative to MK801; 3 μM glutamate, 3 μM glycine, 1 mM Ca2+; read-out: NR2B NAM IC50
Sequence of HEK293 cells expressing NR1/NR2B (Homo sapiens (Human), UniProt Q13224) (Q13224 27-1484, other chains not shown): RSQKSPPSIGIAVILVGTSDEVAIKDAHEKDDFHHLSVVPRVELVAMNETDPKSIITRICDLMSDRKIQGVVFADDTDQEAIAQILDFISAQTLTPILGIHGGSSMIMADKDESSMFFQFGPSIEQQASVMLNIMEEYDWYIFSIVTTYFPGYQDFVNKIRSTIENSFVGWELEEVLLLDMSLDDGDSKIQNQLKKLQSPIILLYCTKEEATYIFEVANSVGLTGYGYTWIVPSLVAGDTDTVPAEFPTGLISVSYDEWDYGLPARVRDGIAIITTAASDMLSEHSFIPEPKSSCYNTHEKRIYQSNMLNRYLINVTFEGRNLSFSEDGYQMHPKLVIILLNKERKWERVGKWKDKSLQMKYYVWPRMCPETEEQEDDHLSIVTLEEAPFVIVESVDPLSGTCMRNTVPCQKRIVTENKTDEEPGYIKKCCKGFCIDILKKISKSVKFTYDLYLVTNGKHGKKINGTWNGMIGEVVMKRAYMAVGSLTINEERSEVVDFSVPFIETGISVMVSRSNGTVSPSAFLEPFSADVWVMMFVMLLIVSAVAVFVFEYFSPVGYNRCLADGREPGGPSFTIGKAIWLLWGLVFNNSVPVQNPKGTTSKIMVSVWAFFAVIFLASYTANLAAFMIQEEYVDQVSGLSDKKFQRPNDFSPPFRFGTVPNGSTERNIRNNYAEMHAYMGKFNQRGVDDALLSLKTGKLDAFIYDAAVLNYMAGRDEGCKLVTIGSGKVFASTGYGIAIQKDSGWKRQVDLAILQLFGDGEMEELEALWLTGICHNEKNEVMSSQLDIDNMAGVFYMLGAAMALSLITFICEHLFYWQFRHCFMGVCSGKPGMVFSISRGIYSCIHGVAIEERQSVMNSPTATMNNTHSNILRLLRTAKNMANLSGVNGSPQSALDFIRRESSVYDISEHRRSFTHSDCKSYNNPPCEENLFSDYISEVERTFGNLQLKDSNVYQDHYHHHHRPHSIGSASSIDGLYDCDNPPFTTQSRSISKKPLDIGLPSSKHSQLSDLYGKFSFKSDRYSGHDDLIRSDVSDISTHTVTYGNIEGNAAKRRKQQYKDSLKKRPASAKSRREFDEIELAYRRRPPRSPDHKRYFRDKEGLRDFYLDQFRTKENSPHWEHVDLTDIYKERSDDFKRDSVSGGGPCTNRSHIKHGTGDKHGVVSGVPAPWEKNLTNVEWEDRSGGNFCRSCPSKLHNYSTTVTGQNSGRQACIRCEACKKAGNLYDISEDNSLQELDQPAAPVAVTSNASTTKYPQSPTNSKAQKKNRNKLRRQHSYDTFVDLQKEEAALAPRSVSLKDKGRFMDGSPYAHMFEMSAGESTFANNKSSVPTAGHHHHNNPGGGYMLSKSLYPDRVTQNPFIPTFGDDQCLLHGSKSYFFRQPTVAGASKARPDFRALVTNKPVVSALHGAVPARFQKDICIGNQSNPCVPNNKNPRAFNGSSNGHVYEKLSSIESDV
Procedure: as §1, §2, §3, §4

Sequence of HEK293 cells expressing NR1/NR2B (Homo sapiens (Human), UniProt Q05586+Q13224) (Q13224 27-1484, other chains not shown): as above

O=C(CN1C[C@H]2C[C@H](Oc3cc(F)cc(F)c3)C[C@H]2C1)c1ccc(O)cn1
IC50 [1]: > 10000 nM
IC50 [2]: 10000 nM

Oc1ccc(C(O)CN2C[C@H]3C[C@H](Oc4cc(F)cc(F)c4)C[C@H]3C2)nc1 (stereo partly shown)
IC50 [1]: < 100 nM
IC50 [2]: 58.3 nM

O=C(CN1C[C@H]2C[C@H](Oc3cccnc3)C[C@H]2C1)c1ccc(O)cc1
IC50 [1]: < 100 nM
IC50 [2]: 81.5 nM

O=C(CN1C[C@H]2C[C@H](Oc3cncc(Cl)c3)C[C@H]2C1)c1ccc(O)cc1
IC50 [1]: 100 to 1000 nM
IC50 [2]: 253 nM

Oc1ccc(C(O)CN2C[C@H]3C[C@H](Oc4cncc(Cl)c4)C[C@H]3C2)cc1 (stereo partly shown)
IC50 [1]: 100 to 1000 nM
IC50 [2]: 493 nM

O=C(CN1C[C@H]2C[C@H](Oc3ccc(F)cc3)C[C@H]2C1)c1cnn(Cc2ccccc2)c1
IC50 [1]: > 10000 nM
IC50 [2]: 10000 nM

OC(CN1C[C@H]2C[C@H](Oc3ccc(F)cc3)C[C@H]2C1)c1cnn(Cc2ccccc2)c1 (stereo partly shown)
IC50 [1]: > 10000 nM
IC50 [2]: 10000 nM

O=C(CN1C[C@H]2C[C@@H](Oc3ccc(F)cc3)C[C@H]2C1)c1ccc(O)cc1
IC50 [1]: < 100 nM
IC50 [2]: 53.4 nM

O=C(CN1C[C@H]2C[C@H](Oc3c(F)cccc3F)C[C@H]2C1)c1ccc(O)cc1
IC50 [1]: < 100 nM
IC50 [2]: 29.3 nM

Oc1ccc(C(O)CN2C[C@H]3C[C@H](Oc4c(F)cccc4F)C[C@H]3C2)nc1 (stereo partly shown)
IC50 [1]: < 100 nM
IC50 [2]: 9.6 nM

Oc1ccc(C(O)CN2C[C@H]3C[C@H](Oc4ccc(F)cc4F)C[C@H]3C2)cc1 (stereo partly shown)
IC50 [1]: < 100 nM
IC50 [2]: 8.62 nM

COC(CN1C[C@H]2C[C@H](Oc3ccc(F)cc3)C[C@H]2C1)c1ccc(O)cc1 (stereo partly shown)
IC50 [1]: 100 to 1000 nM
IC50 [2]: 139 nM

O=C(CN1C[C@H]2C[C@H](Oc3cnccn3)C[C@H]2C1)c1ccc(O)cc1
IC50 [1]: 100 to 1000 nM
IC50 [2]: 149 nM

Oc1ccc(C(O)CN2C[C@H]3C[C@H](Oc4ccc(F)cc4)C[C@H]3C2)nc1 (stereo partly shown)
IC50 [1]: < 100 nM
IC50 [2]: 4.41 nM

Cc1cccc(O[C@H]2C[C@@H]3CN(CC(=O)c4ccc(O)cn4)C[C@@H]3C2)c1F
IC50 [1]: 100 to 1000 nM
IC50 [2]: 435 nM

COc1cccc(F)c1O[C@H]1C[C@@H]2CN(CC(=O)c3ccc(O)cn3)C[C@@H]2C1
IC50 [1]: > 10000 nM
IC50 [2]: 10000 nM

COc1ccc(F)c(O[C@H]2C[C@@H]3CN(CC(=O)c4ccc(O)cn4)C[C@@H]3C2)c1
IC50 [1]: > 10000 nM
IC50 [2]: 10000 nM

COc1cccc(F)c1O[C@H]1C[C@@H]2CN(CC(O)c3ccc(O)cn3)C[C@@H]2C1 (stereo partly shown)
IC50 [1]: 100 to 1000 nM
IC50 [2]: 163 nM

COc1ccc(F)c(O[C@H]2C[C@@H]3CN(CC(O)c4ccc(O)cn4)C[C@@H]3C2)c1 (stereo partly shown)
IC50 [1]: 100 to 1000 nM
IC50 [2]: 547 nM

COc1ccc(F)c(O[C@H]2C[C@@H]3CN(CC(=O)c4ccc(O)cc4)C[C@@H]3C2)c1
IC50 [1]: 100 to 1000 nM
IC50 [2]: 631 nM

COc1ccc(F)c(O[C@H]2C[C@@H]3CN(CC(O)c4ccc(O)cc4)C[C@@H]3C2)c1 (stereo partly shown)
IC50 [1]: 100 to 1000 nM
IC50 [2]: 569 nM

O=C(CN1C[C@H]2C[C@H](Oc3cccc(F)c3F)C[C@H]2C1)c1ccc(O)cn1
IC50 [1]: 100 to 1000 nM
IC50 [2]: 308 nM

Oc1ccc(C(O)CN2C[C@H]3C[C@H](Oc4ccc(F)cc4F)C[C@H]3C2)nc1 (stereo partly shown)
IC50 [1]: < 100 nM
IC50 [2]: 6.81 nM

Cc1ccc(O[C@H]2C[C@@H]3CN(CC(O)c4ccc(O)cn4)C[C@@H]3C2)c(F)c1 (stereo partly shown)
IC50 [1]: < 100 nM
IC50 [2]: 14.4 nM

COc1cccc(O[C@H]2C[C@@H]3CN(CC(=O)c4ccc(O)cn4)C[C@@H]3C2)c1F
IC50 [1]: 1000 to 10000 nM
IC50 [2]: 3780 nM

Cc1cccc(O[C@H]2C[C@@H]3CN(CC(O)c4ccc(O)cn4)C[C@@H]3C2)c1F (stereo partly shown)
IC50 [1]: < 100 nM
IC50 [2]: 23.4 nM

Oc1ccc(C(O)CN2C[C@H]3C[C@H](Oc4cnccn4)C[C@H]3C2)cc1 (stereo partly shown)
IC50 [1]: 100 to 1000 nM
IC50 [2]: 243 nM

Cc1cccc(O[C@H]2C[C@@H]3CN(CC(=O)c4ccc(O)cc4)C[C@@H]3C2)c1F
IC50 [1]: 100 to 1000 nM
IC50 [2]: 177 nM

COc1cccc(O[C@H]2C[C@@H]3CN(CC(O)c4ccc(O)cn4)C[C@@H]3C2)c1F (stereo partly shown)
IC50 [1]: < 100 nM
IC50 [2]: 50.8 nM

COc1cccc(O[C@H]2C[C@@H]3CN(CC(=O)c4ccc(O)cc4)C[C@@H]3C2)c1F
IC50 [1]: 100 to 1000 nM
IC50 [2]: 117 nM

Cc1cccc(O[C@H]2C[C@@H]3CN(CC(O)c4ccc(O)cc4)C[C@@H]3C2)c1F (stereo partly shown)
IC50 [1]: < 100 nM
IC50 [2]: 72.6 nM

COc1cccc(O[C@H]2C[C@@H]3CN(CC(O)c4ccc(O)cc4)C[C@@H]3C2)c1F (stereo partly shown)
IC50 [1]: < 100 nM
IC50 [2]: 77.7 nM

Cc1ccc(O[C@H]2C[C@@H]3CN(CC(=O)c4ccc(O)cn4)C[C@@H]3C2)c(F)n1
IC50 [1]: > 10000 nM
IC50 [2]: 10000 nM

COc1cccc(F)c1O[C@H]1C[C@@H]2CN(CC(=O)c3ccc(O)cc3)C[C@@H]2C1
IC50 [1]: 100 to 1000 nM
IC50 [2]: 466 nM

COc1cccc(F)c1O[C@H]1C[C@@H]2CN(CC(O)c3ccc(O)cc3)C[C@@H]2C1 (stereo partly shown)
IC50 [1]: 100 to 1000 nM
IC50 [2]: 249 nM

Oc1ccc(C(O)CN2C[C@H]3C[C@H](Oc4c(F)cccc4F)C[C@H]3C2)cc1 (stereo partly shown)
IC50 [1]: < 100 nM
IC50 [2]: 26.3 nM

O=C(CN1C[C@H]2C[C@H](Oc3ccccc3Cl)C[C@H]2C1)c1ccc(O)cn1
IC50 [1]: 1000 to 10000 nM
IC50 [2]: 1660 nM

O=C(CN1C[C@H]2C[C@H](Oc3cncnc3)C[C@H]2C1)c1ccc(O)cc1
IC50 [1]: 1000 to 10000 nM
IC50 [2]: 1040 nM

Oc1ccc(C(O)CN2C[C@H]3C[C@H](Oc4cccc(F)c4F)C[C@H]3C2)nc1 (stereo partly shown)
IC50 [1]: < 100 nM
IC50 [2]: 8.78 nM

Cc1ccc(O[C@H]2C[C@@H]3CN(CC(=O)c4ccc(O)cc4)C[C@@H]3C2)c(F)c1
IC50 [1]: 100 to 1000 nM
IC50 [2]: 210 nM

Cc1ccc(O[C@H]2C[C@@H]3CN(CC(O)c4ccc(O)cn4)C[C@@H]3C2)c(F)n1 (stereo partly shown)
IC50 [1]: < 100 nM
IC50 [2]: 60.2 nM

Oc1ccc(C(O)CN2C[C@H]3C[C@H](Oc4ccccc4Cl)C[C@H]3C2)nc1 (stereo partly shown)
IC50 [1]: < 100 nM
IC50 [2]: 38 nM

O=C(CN1C[C@H]2C[C@H](Sc3ccccc3)C[C@H]2C1)c1ccc(O)cc1
IC50 [1]: < 100 nM
IC50 [2]: 26.7 nM

Oc1ccc(C(O)CN2C[C@H]3C[C@H](Sc4ccccc4)C[C@H]3C2)cc1 (stereo partly shown)
IC50 [1]: < 100 nM
IC50 [2]: 9.36 nM

O=C(CN1C[C@H]2CC(S(=O)(=O)c3ccccc3)C[C@H]2C1)c1ccc(O)cc1 (stereo partly shown)
IC50 [1]: 1000 to 10000 nM
IC50 [2]: 3500 nM

O=S(=O)(c1ccccc1)[C@H]1C[C@@H]2CN(CC(O)c3ccc(O)cc3)C[C@@H]2C1 (stereo partly shown)
IC50 [1]: 1000 to 10000 nM
IC50 [2]: 4370 nM

O=C(CN1C[C@H]2C[C@H](S(=O)(=O)c3ccccc3)C[C@H]2C1)c1ccc(O)c(F)c1
IC50 [1]: > 10000 nM
IC50 [2]: 10000 nM

O=S(=O)(c1ccccc1)[C@H]1C[C@@H]2CN(CC(O)c3ccc(O)c(F)c3)C[C@@H]2C1 (stereo partly shown)
IC50 [1]: > 10000 nM
IC50 [2]: 10000 nM

COc1ccc(S[C@H]2C[C@@H]3CN(CC(=O)c4ccc(O)cc4)C[C@@H]3C2)cc1
IC50 [1]: 100 to 1000 nM
IC50 [2]: 230 nM

O=C(CN1C[C@H]2C[C@H](Sc3ccc(F)cc3)C[C@H]2C1)c1ccc(O)cc1
IC50 [1]: < 100 nM
IC50 [2]: 74 nM

Oc1ccc(C(O)CN2C[C@H]3C[C@H](Sc4ccc(F)cc4)C[C@H]3C2)cc1 (stereo partly shown)
IC50 [1]: < 100 nM
IC50 [2]: 19.2 nM

COc1ccc(S[C@H]2C[C@@H]3CN(CC(O)c4ccc(O)cc4)C[C@@H]3C2)cc1 (stereo partly shown)
IC50 [1]: 100 to 1000 nM
IC50 [2]: 113 nM

Oc1ccc(C(O)CN2C[C@H]3C[C@H](Sc4ccccc4F)C[C@H]3C2)nc1 (stereo partly shown)
IC50 [1]: < 100 nM
IC50 [2]: 20.6 nM

Oc1ccc([C@@H](O)CN2C[C@H]3C[C@H](Oc4ccccc4)C[C@H]3C2)nc1
IC50 [1]: < 100 nM
IC50 [2]: 5.25 nM

Oc1ccc([C@H](O)CN2C[C@H]3C[C@H](Oc4ccccc4)C[C@H]3C2)nc1
IC50 [1]: < 100 nM
IC50 [2]: 5.24 nM

Oc1ccc([C@@H](O)CN2C[C@H]3C[C@H](Oc4cccnc4F)C[C@H]3C2)nc1
IC50 [1]: < 100 nM
IC50 [2]: 20 nM

Source: patent publication US10239835B2, “N-alkylaryl-5-oxyaryl-octahydro-cyclopenta[c]pyrrole negative allosteric modulators of NR2B” (Luc Therapeutics, Inc., priority 2014, dated 2019)
